Results on 32 molecules are retold here after patent publication US12110286B2, “Benzimidazolone derived inhibitors of BCL6” (Cancer Research Technology Limited, priority 2017, dated 2024).

The assay addresses Trx-6×His-BCL6 (human BCL6 BTB domain covering amino-acid sequence 5-129) (Homo sapiens (Human), UniProt P41182). The experiment in a line: HTRF in vitro assay (BCL6 / BCOR-AF633 peptide). The assay is classed as binding. The conditions noted are these: for activity in the HTRF assay: result in words. As for the experimental part: The % inhibition at each concentration was calculated by normalising FRET ratio to the appropriate high (DMSO with all reagents) and low (DMSO without BCL6) controls.

[1] abbreviates: further generated data, 1 nM Trx-6×His-BCL6, 300 nM BCOR-AF633 peptide, 0.5 nM anti-6×His-Terbium cryptate.
The mark [2] stands for this setting: initially generated data, 10 nM Trx-6×His-BCL6, 300 nM BCOR-AF633 peptide, 1 nM anti-6×His-Terbium cryptate.

Consider `Cn1c(=O)n(CCC(C)(C)O)c2cc(Nc3ccnc(Cl)c3C#N)ccc21` [Example 1i, 2-chloro-4-[[3-(3-hydroxy-3-methyl-butyl)-1-methyl-2-oxo-benzimidazol-5-yl]amino]pyridine-3-carbonitrile], for which the “HTRF pIC50” value reads like this: under setting [1], 6.08; under setting [2], 5.77.
For the molecule `Cn1c(=O)n(CCC(C)(C)O)c2cc(Nc3nc(N4CCCCC4)ncc3Cl)ccc21` [Example 20d], under setting [1], the “HTRF pIC50” value is given as 5.92.
With `Cn1c(=O)n(CC(O)C(C)(C)O)c2cc(Nc3ccnc(Cl)c3C#N)ccc21` (stereo not shown) [Example 10a, 2-Chloro-4-[[3-(2,3-dihydroxy-3-methyl-butyl)-1-methyl-2-oxo-benzimidazol-5-yl]amino]pyridine-3-carbonitrile], the “HTRF pIC50” value under setting [1] is on record as 5.93 and the “HTRF pIC50” value under setting [2] is reported as 5.81.
Regarding `Cn1c(=O)n(CCC(C)(C)O)c2cc(Nc3nc(N4CCC5(CC4)CC(F)(F)C5)ncc3Cl)ccc21` [Example 35f, 5-((5-chloro-2-(2,2-difluoro-7-azaspiro[3.5]nonan-7-yl)pyrimidin-4-yl)amino)-3-(3-hydroxy-3-methylbutyl)-1-methyl-1,3-dihydro-2H-benzo[d]imidazol-2-one], the “HTRF pIC50” value under setting [1] came out at 6.05.
Turning to `Cn1c(=O)n(CC2(C#N)CCOCC2)c2cc(Nc3ccnc(Cl)c3C#N)ccc21` [2-chloro-4-((3-((4-cyanotetrahydro-2H-pyran-4-yl)methyl)-1-methyl-2-oxo-2,3-dihydro-1H-benzo[d]imidazol-5-yl)amino)nicotinonitrile], the “activity in the HTRF assay” value is on record as “did not exhibit the desired activity”.
Turning to `CCC1(Cn2c(=O)n(C)c3ccc(Nc4nc(N5C[C@@H](C)O[C@@H](C)C5)ncc4Cl)cc32)CN(C)C(=O)O1` (stereo partly shown) [Example 20l], the “HTRF pIC50” value under setting [1] was 6.39.
As for `Cn1c(=O)n(CCC(C)(C)O)c2cc(Nc3nc(N4CCCC(CN5CCOCC5)C4)ncc3Cl)ccc21` (stereo not shown) [Example 42d, 5-((5-chloro-2-(3-(morpholinomethyl)piperidin-1-yl)pyrimidin-4-yl)amino)-3-(3-hydroxy-3-methylbutyl)-1-methyl-1,3-dihydro-2H-benzo[d]imidazol-2-one], the “HTRF pIC50” value under setting [1] is 6.54.
For `COCCNc1cc(Nc2ccc3c(c2)n(C)c(=O)n3C)n2nccc2n1` [5-((5-((2-methoxyethyl)amino)pyrazolo[1,5-a]pyrimidin-7-yl)amino)-1,3-dimethyl-1,3-dihydro-2H-benzo[d]imidazol-2-one], the “activity in the HTRF assay” value is listed as “did not exhibit the desired activity”.
Take `CCC(Cn1c(=O)n(C)c2ccc(Nc3ccnc(Cl)c3C#N)cc21)N(C)C` (stereo not shown) [Example 25b, 2-chloro-4-((3-(2-(dimethylamino)butyl)-1-methyl-2-oxo-2,3-dihydro-1H-benzo[d]imidazol-5-yl)amino)nicotinonitrile: formic acid (1:1)]: under setting [1], the “HTRF pIC50” value was determined as 5.34.
For the molecule `COC(=O)[C@H](N)CCn1c(=O)n(C)c2ccc(Nc3ccnc(Cl)c3C#N)cc21` [Example 12, Methyl (2R)-2-amino-4-[6-[(2-chloro-3-cyano-4-pyridyl)amino]-3-methyl-2-oxo-benzimidazol-1-yl]butanoate], the “HTRF pIC50” value runs as follows: under setting [1], 5.68; under setting [2], 5.79.
As to `Cn1c(=O)n(CCC(C)(C)O)c2cc(Nc3nc(N4CC5CC(C4)C5(F)F)ncc3Cl)ccc21` [Example 35w, 5-((5-chloro-2-(6,6-difluoro-3-azabicyclo[3.1.1]heptan-3-yl)pyrimidin-4-yl)amino)-3-(3-hydroxy-3-methylbutyl)-1-methyl-1,3-dihydro-2H-benzo[d]imidazol-2-one], the “HTRF pIC50” value under setting [1] was found to be 5.74.
For the molecule `Cn1c(=O)n(CC2COCCN2CC(F)(F)F)c2cc(Nc3ccnc(Cl)c3C#N)ccc21` (stereo not shown) [Example 25a, 2-chloro-4-((1-methyl-2-oxo-3-((4-(2,2,2-trifluoroethyl)morpholin-3-yl)methyl)-2,3-dihydro-1H-benzo[d]imidazol-5-yl)amino)nicotinonitrile], the “HTRF pIC50” value under setting [1] is reported as 5.58.
`C#CCCNC(=O)c1cc(Nc2ccc3c(c2)n(CCC(C)C(=O)OC)c(=O)n3C)c(C#N)c(Cl)n1` (stereo not shown) [Example 7b, Methyl 4-[6-[[6-(but-3-ynylcarbamoyl)-2-chloro-3-cyano-4-pyridyl]amino]-3-methyl-2-oxo-benzimidazol-1-yl]-2-methyl-butanoate]: the “HTRF pIC50” value under setting [2] stood at 5.84.
Take `CCOC(=O)c1cc(Nc2ccc3c(c2)n(CCC(C)C(=O)OC)c(=O)n3C)n2nccc2n1` (stereo not shown) [Example 8, Ethyl 7-[[3-(4-methoxy-3-methyl-4-oxo-butyl)-1-methyl-2-oxo-benzimidazol-5-yl]amino]pyrazolo[1,5-a]pyrimidine-5-carboxylate]: the “HTRF pIC50” value runs as follows: under setting [1], 6.01; under setting [2], 5.83.
On the same counts, the results for `Cn1c(=O)n(CCC(C)(C)O)c2cc(Nc3ccnc(Br)c3C#N)ccc21` [Example 1k, 2-bromo-4-[[3-(3-hydroxy-3-methyl-butyl)-1-methyl-2-oxo-benzimidazol-5-yl]amino]pyridine-3-carbonitrile] are 5.82 and 5.63.
Take `Cc1cc(Nc2ccc3c(c2)n(CC[C@@H](C)O)c(=O)n3C)c(C#N)c(Cl)n1` [Example 1l, 2-chloro-4-[[3-[(3R)-3-hydroxybutyl]-1-methyl-2-oxo-benzimidazol-5-yl]amino]-6-methyl-pyridine-3-carbonitrile]: the “HTRF pIC50” value runs as follows: under setting [1], 5.53; under setting [2], 5.62.
Consider `Cn1c(=O)n(C)c2cc(Nc3ccncc3C(F)(F)F)ccc21` [1,3-dimethyl-5-((3-(trifluoromethyl)pyridin-4-yl)amino)-1,3-dihydro-2H-benzo[d]imidazol-2-one], for which the “activity in the HTRF assay” value is recorded as “did not exhibit the desired activity”.
The same measure, in the same setting: to `Cn1c(=O)n(CC2CCCNC2)c2cc(Nc3ccnc(Cl)c3C#N)ccc21` (stereo not shown) [2-chloro-4-((1-methyl-2-oxo-3-(piperidin-3-ylmethyl)-2,3-dihydro-1H-benzo[d]imidazol-5-yl)amino)nicotinonitrile] belongs “did not exhibit the desired activity”.
`Cn1ccc(-c2ncc(Cl)c(Nc3ccc4c(c3)n(CCC(C)(C)O)c(=O)n4C)n2)n1` [Example 23a, 5-((5-chloro-2-(1-methyl-1H-pyrazol-3-yl)pyrimidin-4-yl)amino)-3-(3-hydroxy-3-methylbutyl)-1-methyl-1,3-dihydro-2H-benzo[d]imidazol-2-one]: the “HTRF pIC50” value under setting [1] is recorded as 6.35.
Regarding `Cn1c(=O)n(CCC(C)(C)O)c2cc(Nc3nc(N4C[C@@H](F)[C@@H](F)C4)ncc3Cl)ccc21` [Example 35h, 5-((5-chloro-2-((3R,4S)-3,4-difluoropyrrolidin-1-yl)pyrimidin-4-yl)amino)-3-(3-hydroxy-3-methylbutyl)-1-methyl-1,3-dihydro-2H-benzo[d]imidazol-2-one], the “HTRF pIC50” value under setting [1] is 6.36.
Consider `Cn1c(=O)n(CCC(C)(C)O)c2cc(Nc3ccncc3Cl)ncc21` [6-((3-chloropyridin-4-yl)amino)-1-(3-hydroxy-3-methylbutyl)-3-methyl-1,3-dihydro-2H-imidazo[4,5-c]pyridin-2-one], for which the “activity in the HTRF assay” value is listed as “did not exhibit the desired activity”.
Still for that read-out and setting: for `Cn1c(=O)n(C)c2cc(Nc3cc(C(F)(F)F)nc4ncnn34)ccc21` [1,3-dimethyl-5-((5-(trifluoromethyl)-[1,2,4]triazolo[1,5-a]pyrimidin-7-yl)amino)-1,3-dihydro-2H-benzo[d]imidazol-2-one] the value was “did not exhibit the desired activity”; for `Cn1c(=O)n(CC2(CO)COC2)c2cc(Nc3ccnc(Cl)c3C#N)ccc21` [2-chloro-4-((3-((3-(hydroxymethyl)oxetan-3-yl)methyl)-1-methyl-2-oxo-2,3-dihydro-1H-benzo[d]imidazol-5-yl)amino)nicotinonitrile], “did not exhibit the desired activity”.
As to `Cc1cc(C)n(-c2ncc(Cl)c(Nc3ccc4c(c3)n(CCC(C)(O)CCO)c(=O)n4C)n2)n1` (stereo not shown) [Example 15e], the “HTRF pIC50” value under setting [1] is 6.02.
The same measure, in the same setting: to `CN(C)c1ncc(Cl)c(Nc2ccc3c(c2)n(CCC(C)(C)O)c(=O)n3C)n1` [Example 15g] belongs 5.89.
As to `Cn1c(=O)n(CC(O)C(C)(C)C)c2cc(Nc3ccnc(Cl)c3C#N)ccc21` (stereo not shown) [2-chloro-4-((3-(2-hydroxy-3,3-dimethylbutyl)-1-methyl-2-oxo-2,3-dihydro-1H-benzo[d]imidazol-5-yl)amino)nicotinonitrile], the “activity in the HTRF assay” value is given as “did not exhibit the desired activity”.
For `CCN1CCC[C@H]1Cn1c(=O)n(C)c2ccc(Nc3ccnc(Cl)c3C#N)cc21` [Example 25c, (S)-2-chloro-4-((3-((1-ethylpyrrolidin-2-yl)methyl)-1-methyl-2-oxo-2,3-dihydro-1H-benzo[d]imidazol-5-yl)amino)nicotinonitrile], under setting [1], the “HTRF pIC50” value was determined as 5.34.
On the same count and under the same terms, to `COCC(C)(O)CCn1c(=O)n(C)c2ccc(Nc3nc(-n4nc(C)cc4C)ncc3Cl)cc21` (stereo not shown) [Example 15j] belongs 5.76.
Regarding `COC(=O)C(CCn1c(=O)n(C)c2ccc(Nc3ccnc(Cl)c3C#N)cc21)OC` (stereo not shown) [Example 10b], the “HTRF pIC50” value is, setting by setting: under setting [1], 5.57; under setting [2], 5.71.
On the same counts, the results for `CNC(=O)c1cc(Nc2ccc3c(c2)n(CCC(C)(C)O)c(=O)n3CC2CCOCC2)c(C#N)c(Cl)n1` [Example 1g, 6-chloro-5-cyano-4-[[3-(3-hydroxy-3-methyl-butyl)-2-oxo-1-(tetrahydropyran-4-ylmethyl)benzimidazol-5-yl]amino]-N-methyl-pyridine-2-carboxamide] are 5.95 and 5.82.
Take `Cn1c(=O)n(CCC(C)(C)O)c2cc(Nc3nc(N4CCC[C@H]4CO)ncc3Cl)ccc21` [Example 31a, (S)-5-((5-chloro-2-(2-(hydroxymethyl)pyrrolidin-1-yl)pyrimidin-4-yl)amino)-3-(3-hydroxy-3-methylbutyl)-1-methyl-1,3-dihydro-2H-benzo[d]imidazol-2-one]: under setting [1], the “HTRF pIC50” value stood at 6.46.
On the same count and under the same terms, to `Cn1c(=O)n(CCC(C)(C)O)c2cc(Nc3cc(Cl)nc4ccnn34)ccc21` [Example 22h] belongs 5.47.
